Test results: US8455544B2, “Synthetic triterpenoids and methods of use in the treatment of disease” (Reata Pharmaecuticals, Inc., priority 2008, dated 2013)

Legend:
patients with cancer = assay: Phase I clinical trial in patients with cancer (solid tumor study): serum creatinine, eGFR; format: in vivo, human
Experimental: FIGS. 4A-B—RTA 402 reduces serum creatinine levels and increases the estimated glomerular filtration rate (eGFR) in human patients with cancer. FIG. 4A: Serum creatinine was measured in RTA 402-treated patients enrolled in a Phase I clinical trial for the treatment of cancer. The patients were administered RTA 402 (p.o.) once daily for 21 days at doses ranging from 5 to 1,300 mg/day. The percent reduction of serum creatinine relative to baseline levels is shown for the indicated study days. Significant decreases in serum creatinine levels were observed on Days 15 and 21. FIG. 4B: The estimated glomerular filtration rate (eGFR) was calculated for the patients in FIG. 4A. […] All patients: n=24; patients with baseline ≧1.5: n=5. For FIGS. 4A and 4B, * indicates p≦0.04; † indicates p=0.01, and ‡ indicates p≦0.01. Note: in FIG. 4A, “% Reduction from Baseline” on the vertical axis indicates percent change. For example, a reading of −15 on this axis indicates a 15% reduction in serum creatinine.
FIG. 5—RTA 402 increases GFR in human patients with cancer. Estimated glomerular filtration rate (eGFR) was measured in RTA 402-treated patients enrolled in a multi-month clinical trial for the treatment of cancer. All patients (n=11) dosed through six months were included in the analysis. The dosing information for these patients is provided in Example 5, below.
Serum creatinine has also been measured in patients with cancer enrolled in a Phase I clinical trial of RTA 402. These patients received RTA 402 once daily at doses from 5 to 1,300 mg/day for a total of twenty-one days every 28 days. A reduction in serum creatinine by greater than 15% was observed as early as eight days following treatment initiation and persisted through the end of the cycle (FIG. 4A). This reduction was maintained in those patients that received six or more cycles of treatment with RTA 402. […] In these patients, serum creatinine levels decreased progressively throughout the cycle such that the Day 21 levels were approximately 25% lower than baseline levels (FIG. 4A).
Some of these patients were enrolled in the Phase I study, whereas others were enrolled in a study of RTA 402 (in combination with gemcitabine) in patients with pancreatic cancer.

[1] = test system: patients with diabetic nephropathy; assay: Phase II clinical trial in patients with diabetic nephropathy (type 2 diabetes with CKD); format: in vivo, human
Experimental: Serum creatinine has also been measured in patients with chronic kidney disease (CKD) enrolled in an open label Phase II clinical trial of RTA 402. These patients received RTA 402 once daily at three dose levels, 25 mg, 75 mg and 150 mg, for a total of 28 days.
A primary outcome measure for this study is determining the effects of RTA 402 administered orally at the three dose strengths on the glomerular filtration rate (as estimated by the MDRD formula) in patients with diabetic nephropathy.
Secondary outcome measures include: (1) an evaluation of the safety and tolerability of oral RTA 402 administered orally at the three different doses, in this patient population; (2) an evaluation of the effects of RTA 402 administered orally at the three dose strengths on the serum creatinine level, creatinine clearance, and urine albumin/creatinine ratio in patients with diabetic nephropathy; (3) an evaluation of the effects of RTA 402 administered orally at the three dose strengths on hemoglobin A1c in all patients enrolled and on insulin response by the hyperinsulinemic euglycemic clamp test in patients enrolled at only one of the study centers; (4) an evaluation of the effects of RTA 402 at the three different doses on a panel of markers of inflammation, renal injury, oxidative stress, and endothelial cell dysfunction.
The patient population selected for this study all had type 2 diabetes with CKD. Most had been diagnosed with poor glycemic control for two decades. CKD was established through elevated serum creatinine (SCr) levels. Most of the patients had been diagnosed with cardiovascular disease (CVD) and most were receiving standard of care (SOC) treatment for diabetes, CKD and CVD, (e.g., insulin, ACEI/ARB, β-blocker, diuretic, and statin). The baseline demographic can be summarized as follows:
The patient inclusion criteria were as follows: (1) diagnosis of type 2 diabetes; (2) serum creatinine in women 1.3-3.0 mg/dL (115-265 μmol/L), inclusive, and in men 1.5-3.0 mg/dL (133-265 μmol/L), inclusive; (3) patient must agree to practice effective contraception; (4) patient must have a negative urine pregnancy test within 72 hours prior to the first dose of study medication; (5) patient is willing and able to cooperate with all aspects of the protocol and is able to communicate effectively; (6) patient is willing and able to provide written informed consent to participate in this clinical study. […]

Structure (SMILES): COC(=O)[C@]12CCC(C)(C)C[C@H]1[C@H]1C(=O)C=C3[C@@]4(C)C=C(C#N)C(=O)C(C)(C)[C@@H]4CC[C@@]3(C)[C@]1(C)CC2 [RTA 402, methyl-2-cyano-3,12-dioxooleana-1,9-dien-28-oic acid]
- Reduction in serum creatinine (patients with cancer; 5 to 1,300 mg/day once daily for 21 days every 28 days, as early as eight days following treatment initiation): greater than 15%
- Serum creatinine lower than baseline levels (patients with cancer; Day 21, subset with baseline serum creatinine of at least 1.5 mg/dl): approximately 25%
- Estimated glomerular filtration rate (eGFR) (patients with cancer; Phase I patients, 21 days): significantly improved
- eGFR (patients with cancer; Pt 402, dose 5 mg, cycle 1 (28 days each), BL 109.7): 109.7
- eGFR (patients with cancer; Pt 402, dose 5 mg, cycle 2, BL 109.7): 109.7
- eGFR (patients with cancer; Pt 402, dose 5 mg, cycle 3, BL 109.7): 95.7
- eGFR (patients with cancer; Pt 402, dose 5 mg, cycle 4, BL 109.7): 95.7
- eGFR (patients with cancer; Pt 402, dose 5 mg, cycle 5, BL 109.7): 109.7
- eGFR (patients with cancer; Pt 402, dose 5 mg, cycle 6, BL 109.7): 95.7
- eGFR (patients with cancer; Pt 406, dose 80 mg, cycle 1, BL 94.2): 125.9
- eGFR (patients with cancer; Pt 406, dose 80 mg, cycle 2, BL 94.2): 107.9
- eGFR (patients with cancer; Pt 406, dose 80 mg, cycle 3, BL 94.2): 107.9
- eGFR (patients with cancer; Pt 406, dose 80 mg, cycle 4, BL 94.2): 125.9
- eGFR (patients with cancer; Pt 406, dose 80 mg, cycle 5, BL 94.2): 107.9
- eGFR (patients with cancer; Pt 406, dose 80 mg, cycle 6, BL 94.2): 125.9
- eGFR (patients with cancer; Pt 408, dose 150 mg, cycle 1, BL 73.2): 82.1
- eGFR (patients with cancer; Pt 408, dose 150 mg, cycle 2, BL 73.2): 77.4
- eGFR (patients with cancer; Pt 408, dose 150 mg, cycle 3, BL 73.2): 69.4
- eGFR (patients with cancer; Pt 408, dose 150 mg, cycle 4, BL 73.2): 77.4
- eGFR (patients with cancer; Pt 408, dose 150 mg, cycle 5, BL 73.2): 77.4
- eGFR (patients with cancer; Pt 408, dose 150 mg, cycle 6, BL 73.2): 87.4
- eGFR (patients with cancer; Pt 409, dose 150/300 mg, cycle 1, BL 48.4): 62.6
- eGFR (patients with cancer; Pt 409, dose 150/300 mg, cycle 2, BL 48.4): 62.6
- eGFR (patients with cancer; Pt 409, dose 150/300 mg, cycle 3, BL 48.4): 62.6
- eGFR (patients with cancer; Pt 409, dose 150/300 mg, cycle 4, BL 48.4): 57.0
- eGFR (patients with cancer; Pt 409, dose 150/300 mg, cycle 5, BL 48.4): 69.2
- eGFR (patients with cancer; Pt 409, dose 150/300 mg, cycle 6, BL 48.4): 69.2
- eGFR (patients with cancer; Pt 410, dose 300/600 mg, cycle 1, BL 49.9): 69.6
- eGFR (patients with cancer; Pt 410, dose 300/600 mg, cycle 2, BL 49.9): 63.4
- eGFR (patients with cancer; Pt 410, dose 300/600 mg, cycle 3, BL 49.9): 63.4
- eGFR (patients with cancer; Pt 410, dose 300/600 mg, cycle 4, BL 49.9): 69.6
- eGFR (patients with cancer; Pt 410, dose 300/600 mg, cycle 5, BL 49.9): 63.4
- eGFR (patients with cancer; Pt 410, dose 300/600 mg, cycle 6, BL 49.9): 69.6
- eGFR (patients with cancer; Pt 421, dose 1300/900 mg, cycle 1, BL 52.5): 58.6
- eGFR (patients with cancer; Pt 421, dose 1300/900 mg, cycle 2, BL 52.5): 66.2
- eGFR (patients with cancer; Pt 421, dose 1300/900 mg, cycle 3, BL 52.5): 75.8
- eGFR (patients with cancer; Pt 421, dose 1300/900 mg, cycle 5, BL 52.5): 88.4
- eGFR (patients with cancer; Pt 421, dose 1300/900 mg, cycle 6, BL 52.5): 75.8
- eGFR (patients with cancer; Pt 427, dose 1300 mg, cycle 1, BL 70.1): 101.3
- eGFR (patients with cancer; Pt 427, dose 1300 mg, cycle 2, BL 70.1): 78.3
- eGFR (patients with cancer; Pt 427, dose 1300 mg, cycle 3, BL 70.1): 88.4
- eGFR (patients with cancer; Pt 427, dose 1300 mg, cycle 4, BL 70.1): 101.3
- eGFR (patients with cancer; Pt 427, dose 1300 mg, cycle 5, BL 70.1): 101.3
- eGFR (patients with cancer; Pt 427, dose 1300 mg, cycle 6, BL 70.1): 101.3
- % Serum Creatinine Decrease from Baseline (patients with cancer; all patients, n=45, Day 21): −18.3%
- % of Patients with Decrease on Day 21 (serum creatinine) (patients with cancer; all patients, n=45, drug for at least 3 weeks): 87%
- % of Patients with Decrease on Day 21 (serum creatinine) (patients with cancer; sub-set with elevated baseline serum creatinine levels, n=8): 100%
- % Serum Creatinine Decrease from Baseline (patients with cancer; sub-set with elevated baseline serum creatinine levels, n=8, Day 21): −24.5%
- A1c reduction ([1]; 28 days, elevated baseline (≧7.0 at baseline), n=16): 0.50
- Hemoglobin % A1c reduction ([1]; 28 days, elevated baseline (≧7.0 at baseline), n=35): 0.50 % A1c
- A1c reduction ([1]; 28 days, intent-to-treat, n=21, on top of standard of care): 0.34
- Hemoglobin % A1c reduction ([1]; 28 days, intent-to-treat, n=56): approximately 0.25 % A1c
- GFR increase, response rate ([1]; 28 days, n=22): 86%
- GFR improvement ([1]; 28 days, patients with Stage 4 renal disease): > 30%
- Mean % A1c reduction ([1]; 28 days, patients with advanced (Stage 4) renal disease (GFR 15-29 ml/min)): approximately 0.77 % A1c
- Eight measures of renal function and status ([1]; serum creatinine based eGFR, creatinine clearance, BUN, serum phosphorus, serum uric acid, Cystatin C, Adiponectin, Angiotensin II): improve significantly
